These results are taken from patent US20240309043A1, “THERAPEUTICALLY ACTIVE STEROIDAL DERIVATIVES” (Organon R&D Finland Ltd., priority 2017, published 2024).

Data set [1] deals with HSD1 enzyme that is expressed in rabbit placenta tissue. In words: Inhibition of E1 to E2 conversion in rabbit placenta tissue homogenate. Format: biochemical. The conditions noted are these: inhibitor 100 nM, 30 nM estrone, 30 min.
For data set [2], the target named is T1, recombinant human 17β-HSD1 (Homo sapiens, UniProt P14061).
T1 construct: made in house; host or cells: Sd9 (Sf9) insect cells, baculovirus (Bac to Bac Expression System)
T1 sequence (P14061 1-328): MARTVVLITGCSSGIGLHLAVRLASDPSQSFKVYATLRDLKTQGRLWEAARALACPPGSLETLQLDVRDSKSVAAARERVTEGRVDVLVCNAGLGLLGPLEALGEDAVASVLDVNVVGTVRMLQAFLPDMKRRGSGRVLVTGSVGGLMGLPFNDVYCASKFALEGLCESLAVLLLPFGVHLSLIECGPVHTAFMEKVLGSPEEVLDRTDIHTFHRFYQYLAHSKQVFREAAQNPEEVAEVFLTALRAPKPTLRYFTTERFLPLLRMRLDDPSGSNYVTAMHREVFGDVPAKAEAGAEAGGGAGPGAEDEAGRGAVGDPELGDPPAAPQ
In words: Inhibition of recombinant human 17β-HSD1. Format: biochemical. The conditions noted are these: inhibitor 100 nM; 30 nM estrone, 1 mM NADPH, 30 min RT. Summed up:
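Microsomes from Sf9 cells expressing human 17β-HSD1 (1 μg/ml) were incubated for 30 min at RT in 20 mM KH2PO4 pH 7.4 with 30 nM ³H-estrone, 1 mM NADPH and inhibitor at 1 μM or 0.1 μM (1% DMSO). Estrone-to-estradiol conversion was measured by radio-HPLC after TCA stop, and % inhibition was taken as 100 − % conversion.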

The test system of the next data set is human hepatocytes. Nature of the data set: Metabolic stability assay, human hepatocyte incubations. As to conditions: 37° C., 0-60 min, half life. Format: in vitro ADME. The protocol:
The in vitro metabolic stability of the compounds of the invention was determined for exemplified compounds using human hepatocyte incubations. Study compounds were incubated 0, 10, 20, 40 and 60 min at 37° C. Samples were collected at all time points and compounds were detected by LC-MS/MS analysis. The percent compound remaining is calculated by comparing the peak area of the parent compound at each time point to time zero. In vitro metabolic stability was determined as half life (T½), which was determined by regression analysis of the percent parent disappearance vs. time curve. The results are summarized in Table2.

For data set [3], the target named is T2, recombinant human 17β-HSD2 (Homo sapiens, UniProt P37059).
T2 construct: made in house; host or cells: Sd9 (Sf9) insect cells, baculovirus (Bac to Bac Expression System)
T2 sequence (P37059 1-387): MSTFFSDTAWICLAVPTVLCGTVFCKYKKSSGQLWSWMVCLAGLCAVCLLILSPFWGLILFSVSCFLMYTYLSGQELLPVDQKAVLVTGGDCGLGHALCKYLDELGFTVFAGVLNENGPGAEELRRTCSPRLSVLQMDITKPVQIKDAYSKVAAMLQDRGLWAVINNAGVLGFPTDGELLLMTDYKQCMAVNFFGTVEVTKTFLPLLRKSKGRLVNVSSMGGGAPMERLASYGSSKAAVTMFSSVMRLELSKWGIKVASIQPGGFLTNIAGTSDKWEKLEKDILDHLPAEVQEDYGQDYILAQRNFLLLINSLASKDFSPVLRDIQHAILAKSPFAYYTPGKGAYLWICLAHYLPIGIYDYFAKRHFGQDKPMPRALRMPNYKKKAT
In words: Inhibition of recombinant human 17β-HSD2. The data set is classed as biochemical. The conditions noted are these: inhibitor 1 μM; 50 nM estradiol, 1 mM NADH, 30 min RT. Summed up: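 Sf9 baculovirus-expressed enzyme membrane extract (4 μg/ml) incubated 30 min at RT in 20 mM KH2PO4 pH 8.5 with 50 nM estradiol (³H-tracer) and 1 mM NADH, inhibitor at 1 μM or 0.1 μM, 1% DMSO. TCA-stopped; estradiol-to-estrone conversion by radio-HPLC, % inhibition = 100 − % conversion.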

In general, inhibition refers to the relative decrease from the control value, in per cent. Turning to `C[C@]12CCC3c4cccc(F)c4CCC3C1[C@H](CCC(=O)Nc1ccc(N3CCOCC3)cn1)C/C2=N\O` (stereo partly drawn) [Compound 114, 3-((13S,15R,E)-4-fluoro-17-(hydroxyimino)-13-methyl-7,8,9,11,12,13,14,15,16,17-decahydro-6H-cyclopenta[a]phenanthren-15-yl)-N-(5-morpholinopyridin-2-yl)propanamide], the “Rabbit placenta inhibition % @100 nM” value in data set [1] is 75%. Also, the inhibition at 0.1 µM in data set [2] came out at 100%. Besides, the “Human hepatocytes MetStab T1_2 min” value with human hepatocytes stood at 40 min. For the same molecule, the inhibition at 1 µM in data set [3] amounted to 7%.
